# Values joined by “and” are separate entries in the source; they are usually repeats but may differ in a detail not shown here. Equal entries are not always repeated.
# Key:
# Type in all cases: cell-based
# [1] = test system: human ovarian adenocarcinoma SKOV-3 cells; assay: Cytotoxicity assay (CellTiter-Glo, 72 h), SKOV-3; conditions: raw replicate data
# Procedure, shortened: (§1)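 Incubate 4 h at 37 °C, 5% CO2. Add 2-fold compound dilutions, 0.5% DMSO. After 72 h, read CellTiter-Glo luminescence.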
# [2] = Cytotoxicity assay (CellTiter-Glo, 72 h), MESO-1; conditions: human, MESO-1 malignant pleural mesothelioma cells, raw replicate data, read-out: MESO1 viability (%)
# Procedure, shortened: as §1
# [3] = test system: malignant pleural mesothelioma MESO-1 cells; assay: Cytotoxicity assay (CellTiter-Glo, 72 h), MESO-1; conditions: raw replicate data
# Procedure, shortened: as §1
# [4] = test system: Jurkat, SKOV-3 and MESO-1 cells; assay: Cytotoxicity assay, statements for all tested cell lines together; conditions: against the tested cell lines (Jurkat, SKOV-3, MESO-1)
# Experimental: Jurkat cells were cultured in RPMI1640 medium supplemented with 10% foetal bovine serum, penicillin (50 U/ml), streptomycin (50 μg/ml), and Glutamax. SKOV-3 cells were cultured in DMEM medium supplemented with 10% fetal bovine serum, penicillin (50 U/ml), and streptomycin (50 μg/ml). MESO-1 cells were cultured in RPMI1640 medium supplemented with 10% fetal bovine serum, penicillin (50 U/ml), and streptomycin (50 μg/ml). All cell lines were seeded in a 384-well plate at a density of 1000 cells/well in 20 μl of media and incubated at 37 °C in a humidified incubator with 5% CO2. After 4 h, 2-fold dilution samples resolved in DMSO were added to the cell culture at the concentration of 0.5% (0.1 μl) and incubated for 72 h. Cell viabilities were measured using a CellTiter-Glo luminescent cell viability assay and EnVision multilabel plate reader.
compound,measurement,setting,value
"CO[C@H]1C[C@@H]2CC[C@@H](C)[C@@](O)(O2)C(=O)C(=O)N2CCCC[C@H]2C(=O)O[C@H]([C@H](C)C[C@@H]2CC[C@@H](O)[C@H](OC)C2)CC(=O)[C@H](C)/C=C(\C)[C@@H](O)CC(=O)[C@H](C)C[C@H](C)/C=C/C=C(C)/C=C/1C [Compound 2, 27-demethoxy-19-methyl rapamycin]",SKOV3 viability (%),[1]; conc 0.000190735 uM,104.0% and 97.1%
same,SKOV3 viability (%),[1]; conc 0.00038147 uM,97.2% and 104.3%
same,SKOV3 viability (%),[1]; conc 0.000762939 uM,101.6% and 95.9%
same,SKOV3 viability (%),[1]; conc 0.00152588 uM,101.4% and 101.1%
same,SKOV3 viability (%),[1]; conc 0.00305176 uM,96.6% and 99.8%
same,SKOV3 viability (%),[1]; conc 0.00610352 uM,102.9% and 97.3%
same,SKOV3 viability (%),[1]; conc 0.012207 uM,93.7%
same,SKOV3 viability (%),[1]; conc 0.0244141 uM,96.2% and 94.8%
same,SKOV3 viability (%),[1]; conc 0.0488281 uM,100.2% and 102.5%
same,SKOV3 viability (%),[1]; conc 0.0976562 uM,99.8% and 96.7%
same,SKOV3 viability (%),[1]; conc 0.195312 uM,94.3% and 95.1%
same,SKOV3 viability (%),[1]; conc 0.390625 uM,99.5% and 95.3%
same,SKOV3 viability (%),[1]; conc 0.78125 uM,97.2%
same,SKOV3 viability (%),[1]; conc 1.5625 uM,98.7% and 99.8%
same,SKOV3 viability (%),[1]; conc 3.125 uM,98.6% and 90.6%
same,SKOV3 viability (%),[1]; conc 6.25 uM,97.2% and 96.7%
same,SKOV3 viability (%),[1]; conc 12.5 uM,95.5% and 90.7%
same,SKOV3 viability (%),[1]; conc 25 uM,97.5%
same,SKOV3 viability (%),[1]; conc 50 uM,21.5% and 18.1%
same,"viability at 72 h, 9.53674e-05 uM",[2]; conc 9.53674e-5 uM,101%
same,"viability at 72 h, 0.000190735 uM",[2]; conc 0.000190735 uM,97.4%
same,"viability at 72 h, 0.00038147 uM",[2]; conc 0.00038147 uM,96%
same,"viability at 72 h, 0.000762939 uM",[2]; conc 0.000762939 uM,100%
same,"viability at 72 h, 0.00152588 uM",[2]; conc 0.00152588 uM,97%
same,"viability at 72 h, 0.00305176 uM",[2]; conc 0.00305176 uM,104%
same,"viability at 72 h, 0.00610352 uM",[2]; conc 0.00610352 uM,105%
same,"viability at 72 h, 0.012207 uM",[2]; conc 0.012207 uM,103%
same,"viability at 72 h, 0.0244141 uM",[2]; conc 0.0244141 uM,103%
same,"viability at 72 h, 0.0488281 uM",[2]; conc 0.0488281 uM,102%
same,"viability at 72 h, 0.0976562 uM",[2]; conc 0.0976562 uM,107%
same,"viability at 72 h, 0.195312 uM",[2]; conc 0.195312 uM,103%
same,"viability at 72 h, 0.390625 uM",[2]; conc 0.390625 uM,109%
same,"viability at 72 h, 0.78125 uM",[2]; conc 0.78125 uM,93.3%
same,"viability at 72 h, 1.5625 uM",[2]; conc 1.5625 uM,99.9%
same,"viability at 72 h, 3.125 uM",[2]; conc 3.125 uM,97.7%
same,"viability at 72 h, 6.25 uM",[2]; conc 6.25 uM,97.3%
same,"viability at 72 h, 12.5 uM",[2]; conc 12.5 uM,98%
same,"viability at 72 h, 25 uM",[2]; conc 25 uM,84%
same,"viability at 72 h, 50 uM",[2]; conc 50 uM,2.4%
same,MESO1 viability (%),[3]; conc 9.53674e-5 uM,104.9%
same,MESO1 viability (%),[3]; conc 0.000190735 uM,103.1% and 96.1%
same,MESO1 viability (%),[3]; conc 0.00038147 uM,98.5% and 98.1%
same,MESO1 viability (%),[3]; conc 0.000762939 uM,110.7% and 97.2%
same,MESO1 viability (%),[3]; conc 0.00152588 uM,108.1% and 104.8%
same,MESO1 viability (%),[3]; conc 0.00305176 uM,97.8% and 100.1%
same,MESO1 viability (%),[3]; conc 0.00610352 uM,108.3% and 98.8%
same,MESO1 viability (%),[3]; conc 0.012207 uM,101.9% and 99.1%
same,MESO1 viability (%),[3]; conc 0.0244141 uM,104.7% and 100.7%
same,MESO1 viability (%),[3]; conc 0.0488281 uM,104.5% and 103.1%
same,MESO1 viability (%),[3]; conc 0.0976562 uM,98.7% and 102.0%
same,MESO1 viability (%),[3]; conc 0.195312 uM,104.9% and 106.8%
same,MESO1 viability (%),[3]; conc 0.390625 uM,97.6% and 96.8%
same,MESO1 viability (%),[3]; conc 0.78125 uM,95.1% and 98.4%
same,MESO1 viability (%),[3]; conc 1.5625 uM,99.0% and 101.9%
same,MESO1 viability (%),[3]; conc 3.125 uM,94.6% and 96.8%
same,MESO1 viability (%),[3]; conc 6.25 uM,96.9% and 103.3%
same,MESO1 viability (%),[3]; conc 12.5 uM,98.9% and 92.4%
same,MESO1 viability (%),[3]; conc 25 uM,86.3% and 80.9%
same,MESO1 viability (%),[3]; conc 50 uM,1.2% and 1.3%
same,Concentration at which cytotoxic activities were shown,[4],over 10 µM

# From paper PMC7419507, “In vitro Cas9-assisted editing of modular polyketide synthase genes to produce desired natural product derivatives” (Nature Communications, 2020)
